These results are taken from patent publication EP0943615A1, “1,4-DIHYDROPYRIDINE DERIVATIVES” (Nikken Chemicals Company, Limited, priority 1996, dated 1998).

Structures are written as SMILES. “And” between values parts separate entries of the source, which are not always exact repeats. Equal values may be shown once. Read-outs that look alike come from different tables or passages of the source.

Data set [1] concerns VJ-300 cells. Description: In vitro test of action suppressing proliferation of cancer cells, combined administration of doxorubicin (colony formation), resistant cells. It counts as cell-based, Human. The following applies: ADM alone or ADM + test compound 1 µg/ml, LD50 of ADM relative to ADM alone in KB cells = 1, 7 days incubation, colony count. As to the method: Human rhinopharynx cancer derived KB cells (i.e., sensitive cells) and their multi-drug resistant clone VJ-300 cells (i.e., resistant cells) were used as the test cells. As the incubation solutions, use was made of 10% fetal calf serum (Flow Laboratories) and Eagle MEM medium (Nissui Seiyaku) containing 0.292 mg/ml of L-glutamine (Flow Laboratories). The tests of the action for overcoming resistance to anti-cancer drugs or action for increasing the effect of the anti-cancer drug with the combined administration of the anti-cancer drug doxorubicin (i.e., adriamycin, ADM) and the test compound were performed as follows:
The test cells were suspended in incubation solutions and adjusted to a cell density of about 200 cells/ml. The cell suspensions were injected in 2 ml amounts into petri dishes and were incubated in a CO2 gas incubator (5% CO2, 95% air) at 37°C for 24 hours. Then, 5 µl of a predetermined concentration of the aqueous ADM solution and a predetermined concentration of a DMSO solution of the test compound were added, then the incubation was continued for a further 7 days. After the end of the incubation, the result was immobilized with methanol, Giemsa stained and measured for the number of colonies per dish. The results were used to prepare a volume-reaction curve. […] The results are shown in Table 8 to Table 10 using the concentration of LD50 of ADM in the ADM alone group by KB cells as the resistance degree 1 and calculating the resistances of the following LD50 concentrations as relative ratios. […]

Data set [2] relates to VCR resistant murine leukemia (P388/VCR) cells. As to the kind of experiment: In vivo test: overcoming resistance to vincristine in VCR resistant murine leukemia cell bearing mice. More on the design: species or system CDF1 male mice. The following applies: P388/VCR bearing CDF1 mice, VCR 100 µg/kg alone or with compound 100 mg/kg, intraperitoneally for 5 days; for Effect of overcoming resistance T/V (%): T/C of combination over T/C of VCR alone x 100; for Rate of prolongation of life T/C (%): with respect to controls. How it is done:
10^6 VCR resistant murine leukemia (P388/VCR) cells were transplanted intraperitoneally into groups of six CDF1 male mice, then the compound of the present invention (100 mg/kg) and VCR (100 µg/kg) were administered intraperitoneally for 5 days. […] Effect of overcoming resistance to anti-cancer drug (T/V) % = [(Rate of prolongation of life using VCR and present compound (T/C))/(Rate of prolongation of life using VCR alone (T/C))] x 100 [formula]

The next data set in a line: Acute toxicity test. The following applies: mouse, in vivo, ip; ddY male mice, intraperitoneally, suspended in 0.5% CMC-Na with 0.1% Tween 80, observed up until 7 days. As to the method:
• Animals used: ddY male mice (SLC Japan), 4-5 weeks old, three to five mice per group. • Test method: The compound of the present invention was suspended in 0.5% sodium carboxymethylcellulose (CMC-Na) containing 0.1% Tween 80. It was administered to the mice intraperitoneally in amounts from 1000 mg/kg to 250 mg/kg in groups of three to five mice until no more deaths were observed. The survival of the animals was observed up until 7 days after administration.

Data set [3] has as its system VJ-300 cells. As to the kind of experiment: In vitro test of action suppressing proliferation of cancer cells, combined administration of vincristine, resistant cells. It counts as cell-based, Human. The conditions noted are these: VCR alone or VCR + test compound 1 µg/ml, LD50 of VCR relative to VCR alone in KB cells = 1. As to the method: As the incubation solutions, use was made of 10% fetal calf serum (Flow Laboratories) and Eagle MEM medium (Nissui Seiyaku) containing 0.292 mg/ml of L-glutamine (Flow Laboratories). The tests of the action for overcoming resistance to anti-cancer drugs or action for increasing the effect of the anti-cancer drug with the combined administration of the anti-cancer drug doxorubicin (i.e., adriamycin, ADM) and the test compound were performed as follows:
The test cells were suspended in incubation solutions and adjusted to a cell density of about 200 cells/ml. The cell suspensions were injected in 2 ml amounts into petri dishes and were incubated in a CO2 gas incubator (5% CO2, 95% air) at 37°C for 24 hours. Then, 5 µl of a predetermined concentration of the aqueous ADM solution and a predetermined concentration of a DMSO solution of the test compound were added, then the incubation was continued for a further 7 days. After the end of the incubation, the result was immobilized with methanol, Giemsa stained and measured for the number of colonies per dish. The results were used to prepare a volume-reaction curve. […] The results are shown in Table 8 to Table 10 using the concentration of LD50 of ADM in the ADM alone group by KB cells as the resistance degree 1 and calculating the resistances of the following LD50 concentrations as relative ratios.
The same method as in Test Example 1 was used to test the action of vincristine (VCR) on anti-cancer drugs, prepare a volume-reaction curve, and calculate the resistances.

Data set [4] deals with thoracic aorta of the rat. Description: Action easing KCl contraction in rat arteries (aortic ring, Magnus tube). The conditions noted are these: read-out: IC50 value (x 10^-6 M).
Setting [5] is: 50% inhibitory concentration of hyperpotassium contraction, 50mM potassium chloride, rat thoracic aorta ring, cumulative addition.

Usually LD50 stands for the dose at which mortality reaches 50%. Read a high LD50 as lower toxicity. Consider `CCOC(=O)C1=C(c2ccc(-n3c(C)nc4ncccc43)cc2)NC(C)=C(C(=O)OCCCc2cccnc2)C1C(C)C` (centres unmarked) [Compound 1, 4-isopropyl-6-methyl-2-[4-(2-methylimidazo[4,5-b]pyridin-1-yl)phenyl]-1,4-dihydropyridin-3,5-dicarboxylate 3-ethylester, 5-[3-(3-pyridyl)propyl]ester], for which the “Degree of resistance for ADM VJ-300” value in the data set with VJ-300 cells [1] is listed as 2.4. In addition, in data set [2], the “Average days of survival” value is 12.8, the “Effect of overcoming resistance T/V (%)” value was determined as 113% and the “Rate of prolongation of life T/C (%)” value is listed as 108%. This molecule also displayed an LD50 at 168 h in the data set “Acute toxicity test” greater than 1000 mg/kg.

For the molecule `CCOC(=O)C1=C(c2ccc(-n3ccnc3)cc2)NC(C)=C(C(=O)OCCCc2cccnc2)C1/C=C/c1ccccc1` (centres unmarked) [Compound 43, 2-[4-(1-imidazolyl)phenyl]-6-methyl-4-[(E)-2-phenylethenyl]-1,4-dihydropyridin-3,5-dicarboxylate 3-ethylester, 5-[3-(3-pyridyl)propyl]ester], the “Degree of resistance for ADM VJ-300” value with VJ-300 cells [1] is recorded as 1.4. In data set [2], the “Average days of survival” value was determined as 13.4, the “Effect of overcoming resistance T/V (%)” value is 137% and the “Rate of prolongation of life T/C (%)” value amounted to 141%.

What is called IC50 is the concentration needed to halve the response being measured. Regarding `CCOC(=O)C1=C(c2ccc(-n3c(C)nc4cnccc43)cc2)NC(C)=C(C(=O)OCCCc2cccnc2)C1C(C)C` (centres unmarked) [Compound 2, 4-isopronyl-6-methyl-2-[4-(2-methylimidazo[4,5-c]pyridin-1-yl)phenyl]-1,4-dihydronyridin-3,5-dicarboxylate 3-ethylester, 5-[3-(3-pyridyl)propyl]ester], in the data set with VJ-300 cells [1], the “Degree of resistance for ADM VJ-300” value is recorded as 2.7. Besides, the “Degree of resistance for VCR VJ-300” value in the data set with VJ-300 cells [3] was determined as 9.6. Besides, the IC50 in data set [4] (setting [5]) is greater than 30000 nM. Besides, in the data set “Acute toxicity test”, the LD50 at 168 h was greater than 1000 mg/kg.

As to `CCCCCC1C(C(=O)OCCCc2cccnc2)=C(C)NC(c2ccc(-n3c(C)nc4ncccc43)cc2)=C1C(=O)OCC` (centres unmarked) [Compound 3, 6-methyl-2-[4-(2-methylimidazo[4,5-b]pyridin-1-yl)phenyl]-4-pentyl-1,4-dihydropyridin-3,5-dicarboxylate 3-ethylester, 5-[3-(3-pyridyl)propyl]ester], the “Degree of resistance for ADM VJ-300” value in the data set on VJ-300 cells [1] was 1.2. The “Degree of resistance for VCR VJ-300” value in the data set with VJ-300 cells [3] was determined as 7.1. In data set [2], the “Average days of survival” value stood at 15.0, the “Effect of overcoming resistance T/V (%)” value is 133% and the “Rate of prolongation of life T/C (%)” value worked out at 127%.

Consider `COc1ccc(CCN(C)CCCC(C#N)(c2ccc(OC)c(OC)c2)C(C)C)cc1OC` (centres unmarked) [Verapamil], for which the IC50 in data set [4] (Rattus norvegicus) was 1430 nM.

Take `CCOC(=O)C1=C(c2ccc(-n3c(C)nc4cnccc43)cc2)NC(C)=C(C(=O)OC/C=C/c2cccnc2)C1CCc1ccccc1` (centres unmarked) [Compound 24, 6-methyl-2-[4-(2-methylimidazo[4,5-c]pyridin-1-yl)phenyl]-4-(2-phenyl)ethyl-1,4-dihydropyridin-3,5-dicarboxylate 3-ethylester, 5-[(E)-3-(3-pyridyl)-2-propenyl]ester]: the “Degree of resistance for ADM VJ-300” value in the data set with VJ-300 cells [1] came out at 1.1. For the same molecule, in data set [2], the “Average days of survival” value is recorded as 13.3, the “Effect of overcoming resistance T/V (%)” value was 136% and the “Rate of prolongation of life T/C (%)” value amounted to 140%. Besides, the LD50 at 168 h in the data set “Acute toxicity test” is greater than 1000 mg/kg.

Take `CCCCCC1C(C(=O)OC/C=C/c2cccnc2)=C(C)NC(c2ccc(-n3c(C)nc4cnccc43)cc2)=C1C(=O)OCC` (centres unmarked) [Compound 23, 6-methyl-2-[4-(2-methylimidazo[4,5-c]pyridin-1-yl)phenyl]-4-pentyl-1,4-dihydropyridin-3,5-dicarboxylate 3-ethylester, 5-[(E)-3-(3-pyridyl)-2-propenyl]ester]: the “Degree of resistance for ADM VJ-300” value with VJ-300 cells [1] is 1.2. Moreover, in data set [2], the “Average days of survival” value is 13.5, the “Effect of overcoming resistance T/V (%)” value turned out to be 138% and the “Rate of prolongation of life T/C (%)” value was determined as 142%. This molecule also returned an LD50 at 168 h in the data set “Acute toxicity test” greater than 1000 mg/kg.

`CC[C@]1(O)C[C@H]2CN(CCc3c([nH]c4ccccc34)[C@@](C(=O)OC)(c3cc4c(cc3OC)N(C=O)[C@H]3[C@@](O)(C(=O)OC)[C@H](OC(C)=O)[C@]5(CC)C=CCN6CC[C@]43[C@@H]65)C2)C1` [VCR, vincristine, reference compound]: the “Degree of resistance for VCR VJ-300” value in the data set with VJ-300 cells [3] is given as 483 - 952. Also, in data set [2] (100 mg/kg), the “Average days of survival” value is 11.3 and 9.8 and 12.3; the “Rate of prolongation of life T/C (%)” value is 96% and 103% and 109%. The “Effect of overcoming resistance T/V (%)” value in data set [2] is recorded as 100%.

Consider `CCCCCC1C(C(=O)OCCCc2cccnc2)=C(C)NC(c2ccccc2)=C1C(=O)OCC` (centres unmarked) [Compound 15, 6-methyl-4-pentyl-2-phenyl-1,4-dihydropyridin-3,5-dicarboxylate 3-ethylester, 5-[3-(3-pyridyl)propyl]ester], for which the “Degree of resistance for ADM VJ-300” value in the data set on VJ-300 cells [1] was determined as 3.2. In addition, the “Degree of resistance for VCR VJ-300” value in the data set on VJ-300 cells [3] is given as 6.5. For the same molecule, in data set [2], the “Average days of survival” value is listed as 15.7, the “Effect of overcoming resistance T/V (%)” value was 128% and the “Rate of prolongation of life T/C (%)” value was 139%.

Take `COC(=O)C1=C(C)NC(C)=C(C(=O)OCCN(C)Cc2ccccc2)C1c1cccc([N+](=O)[O-])c1` (centres unmarked) [Nicardipine]: the IC50 in data set [4] (setting [5]) was found to be 260 nM.

Consider `CCCCCC1C(C(=O)OCCCc2cccnc2)=C(C)NC(c2cccnc2)=C1C(=O)OCC` (centres unmarked) [Compound 16, 6-methyl-4-pentyl-2-(3-pyridyl)-1,4-dihydropyridin-3,5-dicarboxylate 3-ethylester, 5-[3-(3-pyridyl)propyl]ester], for which the “Degree of resistance for ADM VJ-300” value with VJ-300 cells [1] is 3.0. Moreover, in data set [2], the “Average days of survival” value turned out to be 16.2, the “Effect of overcoming resistance T/V (%)” value stood at 143% and the “Rate of prolongation of life T/C (%)” value is listed as 137%. In the data set “Acute toxicity test”, this molecule returned an LD50 at 168 h greater than 1000 mg/kg.

In the case of `CCOC(=O)C1=C(c2ccc(-n3ccnc3)cc2)NC(C)=C(C(=O)OC/C=C/c2cccnc2)C1/C=C/c1ccccc1` (centres unmarked) [Compound 33, 2-[4-(1-imidazolyl)phenyl]-6-methyl-4-[(E)-2-phenylethenyl]-1,4-dihydropyridin-3,5-dicarboxylate 3-ethylester, 5-[(E)-3-(3-pyridyl)-2-propenyl)ester], the “Degree of resistance for ADM VJ-300” value in the data set with VJ-300 cells [1] is 1.4. The molecule also yielded an LD50 at 168 h in the data set “Acute toxicity test” greater than 1000 mg/kg.

On to `COC(=O)C1=C(c2ccc(-n3ccnc3)cc2)NC(C)=C(C(=O)OC/C=C/c2cccnc2)C1/C=C/c1ccccc1` (centres unmarked) [Compound 39, 2-[4-(1-imidazolyl)phenyl]-6-methyl-1,4-dihydropyridin-4-[(E)-2-phenylethenyl]-3,5-dicarboxylate 3-methylester, 5-[(E)-3-(3-pyridyl)-2-propenyl]ester], for which, in the data set on VJ-300 cells [1], the “Degree of resistance for ADM VJ-300” value amounted to 1.2.
